Drawing on the supplement of paper PMC10307832, this text covers relative viability for 4 cell lines.

Holding throughout (experiment): relative viability (nuclei count vs DMSO), 5 days (fraction); higher = more cells survive
Compound in the assay “BI-D1870 + Palbociclib”: CC(C)CCN1c2nc(Nc3cc(F)c(O)c(F)c3)ncc2N(C)C(=O)C1C [BI-D1870] + CC(=O)c1c(C)c2cnc(Nc3ccc(N4CCNCC4)cn3)nc2n(C2CCCC2)c1=O [Palbociclib] (partner 0.5 µM)
A digest of the protocol: (§1)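 Lung cancer cell lines were seeded in 1536-well plates and dosed by pin tool the next day, with either a single drug or a fixed anchor-drug dose combined with five library-drug doses (not always all listed) spaced in √10 steps. Five days later, one step fixed the cells and stained their nuclei (final 0.05% Triton X-100, 1% formaldehyde, 1 ug/ml Hoechst), and nuclei were counted on 4× images. Relative viability is the nuclei count in treated wells divided by the count in vehicle wells, and each value is the median of duplicate plates.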

Compound in the assay “Zebularine + Olaparib”: O=c1ncccn1[C@@H]1O[C@H](CO)[C@@H](O)[C@H]1O [Zebularine] + O=C(c1cc(Cc2n[nH]c(=O)c3ccccc23)ccc1F)N1CCN(C(=O)C2CC2)CC1 [Olaparib] (partner 8 µM)
The procedure, abridged: as §1

Compound in the assay “Zebularine + Pictilisib”: O=c1ncccn1[C@@H]1O[C@H](CO)[C@@H](O)[C@H]1O [Zebularine] + CS(=O)(=O)N1CCN(Cc2cc3nc(-c4cccc5[nH]ncc45)nc(N4CCOCC4)c3s2)CC1 [Pictilisib] (partner 1 µM)
A digest of the protocol: as §1

Compound in the assay “Zebularine + Palbociclib”: O=c1ncccn1[C@@H]1O[C@H](CO)[C@@H](O)[C@H]1O [Zebularine] + CC(=O)c1c(C)c2cnc(Nc3ccc(N4CCNCC4)cn3)nc2n(C2CCCC2)c1=O [Palbociclib] (partner 0.5 µM)
The procedure, abridged: as §1

Regarding NCI-H1395, the relative viability in the assay with BI-D1870 + Palbociclib (first compound 0.04 µM) is 0.649; in the assay with BI-D1870 + Palbociclib (first compound 0.1265 µM), 0.603; in the assay with BI-D1870 + Palbociclib (first compound 0.4 µM) it was 0.64; in the assay with BI-D1870 + Palbociclib (first compound 1.265 µM), 0.717; with BI-D1870 + Palbociclib (first compound 4 µM), 0.638; with Zebularine + Olaparib (first compound 1 µM) it was 0.465. The relative viability with Zebularine + Olaparib (first compound 3.162 µM) turned out to be 0.47; with Zebularine + Olaparib (first compound 10 µM) it was 0.558; with Zebularine + Olaparib (first compound 31.62 µM), 0.438; with Zebularine + Olaparib (first compound 100 µM), 0.448; in the assay with Zebularine + Pictilisib (first compound 1 µM) it was 0.681; in the assay with Zebularine + Pictilisib (first compound 3.162 µM) it was 0.568. For the same cell line, the relative viability in the assay with Zebularine + Pictilisib (first compound 10 µM) turned out to be 0.493; in the assay with Zebularine + Pictilisib (first compound 31.62 µM), 0.606; in the assay with Zebularine + Pictilisib (first compound 100 µM), 0.42; with Zebularine + Palbociclib (first compound 1 µM) it was 0.664; with Zebularine + Palbociclib (first compound 3.162 µM), 0.659; with Zebularine + Palbociclib (first compound 10 µM), 0.621. The relative viability turned out to be 0.512 with Zebularine + Palbociclib (first compound 31.62 µM) and 0.518 with Zebularine + Palbociclib (first compound 100 µM).

NCI-H1437: the relative viability is 0.304 with BI-D1870 + Palbociclib (first compound 0.04 µM); 0.336 with BI-D1870 + Palbociclib (first compound 0.1265 µM); 0.309 with BI-D1870 + Palbociclib (first compound 0.4 µM); 0.272 with BI-D1870 + Palbociclib (first compound 1.265 µM); 0.212 with BI-D1870 + Palbociclib (first compound 4 µM); 0.661 in the assay with Zebularine + Olaparib (first compound 1 µM). In addition, the relative viability with Zebularine + Olaparib (first compound 3.162 µM) was 0.641; with Zebularine + Olaparib (first compound 10 µM), 0.511; in the assay with Zebularine + Olaparib (first compound 31.62 µM) it was 0.443; in the assay with Zebularine + Olaparib (first compound 100 µM), 0.482; with Zebularine + Pictilisib (first compound 1 µM), 0.559; in the assay with Zebularine + Pictilisib (first compound 3.162 µM), 0.453. Besides, the relative viability with Zebularine + Pictilisib (first compound 31.62 µM) turned out to be 0.451; in the assay with Zebularine + Pictilisib (first compound 100 µM), 0.287; with Zebularine + Palbociclib (first compound 1 µM), 0.308; in the assay with Zebularine + Palbociclib (first compound 3.162 µM) it was 0.33; with Zebularine + Palbociclib (first compound 10 µM), 0.308; in the assay with Zebularine + Palbociclib (first compound 31.62 µM) it was 0.453. Moreover, in the assay with Zebularine + Palbociclib (first compound 100 µM), the relative viability turned out to be 0.329.

For the cell line NCI-H1650, the relative viability with BI-D1870 + Palbociclib (first compound 0.04 µM) was 0.372; with BI-D1870 + Palbociclib (first compound 0.1265 µM), 0.316; with BI-D1870 + Palbociclib (first compound 0.4 µM) it was 0.338; with BI-D1870 + Palbociclib (first compound 1.265 µM), 0.321; in the assay with BI-D1870 + Palbociclib (first compound 4 µM) it was 0.335; with Zebularine + Olaparib (first compound 1 µM), 0.731. Besides, the relative viability with Zebularine + Olaparib (first compound 3.162 µM) turned out to be 0.642; with Zebularine + Olaparib (first compound 10 µM), 0.634; with Zebularine + Olaparib (first compound 31.62 µM), 0.912; with Zebularine + Olaparib (first compound 100 µM) it was 0.39; with Zebularine + Pictilisib (first compound 1 µM), 0.72; with Zebularine + Pictilisib (first compound 3.162 µM), 0.447. The relative viability with Zebularine + Pictilisib (first compound 31.62 µM) is 0.839; with Zebularine + Pictilisib (first compound 100 µM) it was 0.488; with Zebularine + Palbociclib (first compound 1 µM) it was 0.349; in the assay with Zebularine + Palbociclib (first compound 3.162 µM) it was 0.359; with Zebularine + Palbociclib (first compound 10 µM), 0.311; with Zebularine + Palbociclib (first compound 31.62 µM), 0.504. In addition, the relative viability with Zebularine + Palbociclib (first compound 100 µM) was found to be 0.285.

Consider NCI-H1651, for which the relative viability with BI-D1870 + Palbociclib (first compound 0.04 µM) is 0.473; with BI-D1870 + Palbociclib (first compound 0.1265 µM), 0.503; with BI-D1870 + Palbociclib (first compound 0.4 µM), 0.494; with BI-D1870 + Palbociclib (first compound 1.265 µM), 0.555; with BI-D1870 + Palbociclib (first compound 4 µM), 0.536; in the assay with Zebularine + Olaparib (first compound 1 µM) it was 0.183. The relative viability with Zebularine + Olaparib (first compound 3.162 µM) came to 0.188; with Zebularine + Olaparib (first compound 10 µM), 0.187; in the assay with Zebularine + Olaparib (first compound 31.62 µM) it was 0.165; with Zebularine + Olaparib (first compound 100 µM), 0.166; with Zebularine + Pictilisib (first compound 1 µM), 0.71; with Zebularine + Pictilisib (first compound 3.162 µM) it was 0.732. Also, the relative viability came to 0.571 in the assay with Zebularine + Pictilisib (first compound 31.62 µM); 0.418 with Zebularine + Pictilisib (first compound 100 µM); 0.525 with Zebularine + Palbociclib (first compound 1 µM); 0.491 in the assay with Zebularine + Palbociclib (first compound 3.162 µM); 0.507 with Zebularine + Palbociclib (first compound 10 µM); 0.557 with Zebularine + Palbociclib (first compound 31.62 µM). In addition, the relative viability with Zebularine + Palbociclib (first compound 100 µM) was 0.352.
